Where two headings read alike, the source gives them in different places.
Columns and labels:
[1] = tested on: chicken lymphocytes
[2] = tested on: weaned piglets; details: pig, in vivo

Question: With C=C1[C@@H]2O[C@@H]3C=C(C)C(=O)[C@@H](O)[C@]3(CO)[C@@]1(C)C[C@H]2O [DOM-1] as the molecule, how does the “concentration without any adverse effect on the cell activity” value ([1]; checking after 28 and after 44 hours) read?
Answer: 58 µg/mL

Question: What about the “concentration without apparent change of proliferation foci / no negative effects on the cell culture” value ([1]; checking after 20 hours, listed as DOM) of the same molecule?
Answer: ≤ 58 µg/mL

Question: What about the “concentration without apparent change of proliferation foci / no negative effects on the cell culture” value ([1]; checking after 20 hours, listed as deepoxymetabolite) of the same molecule?
Answer: 58 µg/mL

Question: How did the FCR [2] turn out when CC1=C[C@H]2O[C@@H]3[C@H](O)C[C@](C)([C@@]2(CO)[C@H](O)C1=O)[C@]31CO1 [DON, deoxynivalenol] was run?
Answer: 1.79

Question: What about the Feedstuff intake/animal/day [2] of the same molecule?
Answer: 226.3

Question: And the “Losses (total)” value [2]?
Answer: 0

Question: What about the “Weight increase/animal/day” value [2] of the same molecule?
Answer: 126.2 g

Question: And the “action on the cell culture” value [1]?
Answer: marked damage to the cells

Question: What about the “concentration from which a marked adverse effect on the cell activity is present” value ([1]; checking after 20 hours) of the same molecule?
Answer: ≥ 0.625 µg/mL

Reference: patent US7347997B1, “Method of using a feedstuff additive” (priority 1998, dated 2008)
